How the values were obtained:
[1] = Body weight during TMZ/vehicle i.p. injection protocol; assay type: in vivo; details: mice given TMZ or vehicle i.p. on three consecutive days per week for four weeks
Experimental: The enriched environment (groups 2 and 3) included a running wheel, two different objects, small ball, a short plastic tube, bedding, and a nest. Control animals (groups 1 and 4) were in standard cages including bedding and nest. In both conditions, three mice were housed per cage for four weeks. The mice received a TMZ/vehicle i.p. injection three times a week. On day 29, the mice received a BrdU i.p. injection and were perfused 24 h later for IHC analysis. For neurogenesis suppression, TMZ was dissolved in DMSO at 25 mg/ml and diluted to 1.25 mg/ml in sterile saline. The mice were given i.p. injections of saline +5% DMSO (vehicle) or TMZ on three consecutive days followed by four days with no injection for four weeks. On the last week, BrdU was given i.p. in 0.9% NaCl at 200 mg/kg body weight.
Sixteen (16) eEF2K double foxed mice were injected with CaMKII-Cre and GFP viruses to the DG and 3 weeks following virus injection were injected i.p TMZ and vehicle. TMZ was dissolved in DMSO at 25 mg/ml and diluted to 1.25 mg/ml in sterile saline. The mice were given i.p. injections of saline +5% DMSO (vehicle) or TMZ on three consecutive days followed by four days with no injection for four weeks. On the last week, BrdU was given i.p. in 0.9% NaCl at 200 mg/kg body weight. […]

WT mice = experiment: Forced swim test; assay type: in vivo; details: WT naive mice, ketamine 5 mg/kg i.p., 30 min before test, vs saline; last 4 min scored
Experimental: WT mice were injected with ketamine 5 mg/kg or saline i.p., and 30 min later together with the CaMKII Cre/GFP-injected mice were all subjected to the forced swim test (FST). The mice were placed in a 5-liter transparent glass beaker containing 4-liter warm water at 24° C. The mice were video recorded for 6 min. The last 4 min were manually scored for immobility. Total immobility time (in seconds) is presented in the results.

eEF2 (pThr56eEF2) = experiment: Western blot of pThr56eEF2, eEF2 and tubulin in DG and cortex samples after ketamine i.p. injection; assay type: in vivo, mice; details: 30 min after injection; for pThr56eEF2 normalized to total eEF2 in DG lysates: dentate gyrus
Experimental: Mouse brains were quickly excised and snap frozen immediately in liquid nitrogen, and then transferred to −80° C. for later use. The brains were kept in the cryostat cabin for 15 min at −15° C. before starting tissue punching. Four 500 μm thick coronal sections were sliced slowly, and the DG and cortex tissues from both hemispheres were collected by a mouse tissue puncher. The DG and cortex tissues were transferred to a new tubes and kept immediately on dry ice and then transferred to −80° C. until further use. Brain tissues were homogenized in 100 μl of ice-cold homogenization buffer (HEPES 10 mM pH 7.4, EDTA 2 mM pH 7.4, EGTA 2 mM pH 7.4, DTT 0.5 mM (all from Sigma-Aldrich, Rehovot, Israel), 1× protease inhibitor mixture (Sigma-Aldrich Rehovot, Israel); and 1× phosphatase inhibitor mixture (Sigma-Aldrich)). Protein concentration was determined by a BCA kit (CYANAGEN, PRTD1, 0500). Protein Samples were prepared in SDS sample buffer (22.22% glycerol, 22.22% SDS (20% stock), 26.66% (0.5 M Tris PH 6.8), rest DDW) and β-Mercaptoethanol, then were boiled in 100° C. for 5 min. Each sample was divided to 3 aliquots. Each aliquot was thawed on ice and used for blotting only once or twice. The samples were subjected to 10% or 12% gel SDS-PAGE (electrophoresed on Bio-Rad PAGE apparatus) and Western blot analysis. Each sample was loaded with the same amount of total protein (8-12 μg; according to antibody linearity). After transfer to a […] pore size nitrocellulose membrane or PVDF membrane, the blots were blocked with 5% bovine serum albumin (BSA) or non-fat dry milk (blotting-grade blocker, Bio-Rad) in Tris-buffered saline plus 0.5% tween-20 (TBST) at room temperature for 1 hr. The blots were incubated overnight with the suitable primary antibodies. The blots were then subjected to three 5 min washing steps in TBST, after which they were incubated with the corresponding HRP-conjugated secondary antibodies for 1 h at room temperature followed by three 10 min washing steps with TBST. Immunodetection was performed with the enhanced-chemiluminescence EZ-ECL kit (Biological Industries, Israel). The immunoblots were quantified with a CCD camera and Quantity One software (Bio-Rad).
For all tested proteins, polyacrylamide gels were freshly prepared and used on the same day. Polyacrylamide gels (10%, Tris pH 8.8) were used to analyze the expression of eEF2, pThr56eEF2, vimentin, decorin, AMPK, pThr172AMPK, KIFSA, ERK2, pERK2, pS6K1, S6K1 and tubulin. In addition, criterion gels (BIO-RAD) were used to analyze the expression of NSF protein in the different fractions. Samples containing 10 μg protein were loaded for the detection of each protein. Samples containing 8 μg protein were loaded for ERK and pERK and […] for S6K1 and pS6K1. Each immunoblot was measured relative to the background and normalized to the endogenous control (tubulin), taken from the same gel. Mature-BDNF was analyzed using 12% (Tris pH 8.8) polyacrylamide gel and was measured relative to the background and normalized to tubulin from the same gel. Samples containing 12 μg protein were loaded for mature-BDNF. The phoshpo-protein was normalized to tubulin taken from the same gel as well.

[2] = ketamine 5 mg/kg i.p. vs control, cortex
[3] = ketamine 5 mg/kg i.p. vs saline

Row | Compound | body weight throughout the experiment [1] | immobility time in forced swim test (WT mice) | eEF2 protein level normalized to tubulin in cortex tissue (eEF2 (pThr56eEF2); [2]) | pT56eEF2 normalized to eEF2 protein in cortex tissue (eEF2 (pThr56eEF2); [2]) | eEF2 protein levels normalized to tubulin (DG samples) (eEF2 (pThr56eEF2); [3]) | pThr56eEF2 normalized to total eEF2 in DG lysates (eEF2 (pThr56eEF2); [3]) | pThr56eEF2 normalized to total eEF2 in DG lysates (eEF2 (pThr56eEF2); ketamine 5 mg/kg i.p. vs saline, listed as Ketamine)
1 | Cn1nnc2c(C(N)=O)ncn2c1=O [TMZ, Temozolomide] | maintained normal body weight |  |  |  |  |  | 
2 | CNC1(c2ccccc2Cl)CCCCC1=O (stereo not shown) [ketamine] |  | significantly lower immobility time | no change in eEF2 protein level | reduces pT56eEF2 levels | no change in eEF2 protein levels | peEF2 levels were reduced | induces eEF2 dephosphorylation

— patent publication US20220288151A1, “COMPOSITIONS AND METHODS FOR TREATING NEUROLOGICAL DISEASES” (CARMEL HAIFA UNIVERSITY ECONOMIC CORPORATION LTD., priority 2019, published 2022)
